Data reported in publication PMC8434099, “Selected Drug-Likeness Properties of 2-Arylidene-indan-1,3-dione Derivatives—Chemical Compounds with Potential Anti-Cancer Activity” (Molecules, 2021).

Key:
[1] = Chromatographic (RP-HPLC) examination of lipophilicity, Snyder–Soczewiński model; type: physicochemical; details: for logkw (ACN) / logkw (MeOH): RP-HPLC, extrapolated Snyder–Soczewiński curve; for logkw (ACN) / −S (ACN): acetonitrile as organic modifier; for logkw (MeOH) / −S (MeOH): methanol as organic modifier; for Compliance with the lipophilicity assumption of the Lipiński’s rule (logkw below 5): analyses using methanol as a modifier; for Δ = |logkw-MeOH − logkw-ACN|: difference of logkw between modifiers; for −S (ACN) / −S (MeOH): slope of the Snyder–Soczewiński regression curve
Protocol: The chromatographic analysis was carried out on a Shimadzu device equipped with a pump system (LC-20AD model), a detector with a diode bench (SPD-M20A model), a degasser (DGU-20A 5R model), a chromatographic oven (CTO-10AS VP), autosampler (SIL-20AC HT model), and chromatographic column (LiChrospher 100 RP-18, 5 μm, Poznań, Poland). Analyses were performed, leading to a multicratic elution. The mobile phase was methanol (J. T. Backer, Phillipsburg, NJ, USA) or acetonitrile (J. T. Backer) and water (Hydrolab, HPL5UV model, Straszyn, Poland) in different volume ratios. In individual analyses, the concentration of the organic modifier expressed as a […] was 0.75–0.95 with a constant step of 0.05. The test compounds were dissolved in methanol. The injection volume was 10 µL. The flow was set at 1 mL/min, the temperature of the chromatography oven at 25 °C, and the detector temperature at 2 °C higher than the ambient temperature. Compounds were detected in the range 190–800 nm. All samples were tested in duplicate at least. Column dead time (tM) was determined using uracil (Sigma Aldrich). The retention coefficient was calculated using the following formula:(1) k=tR/tM−1, where tR is the retention time of the test compound in a given eluent composition, and tM is the chromatographic column dead time.
The value of lipophilicity was determined using the linear dependence of the decimal logarithm from the retention coefficient (logk) and the concentration of the organic modifier in the mobile phase, which was expressed as a volume fraction. For this purpose, the following formula was used:(2) logk=logkw+Sφ, where logk is the decimal logarithm of the retention coefficient, logkw is the value obtained by extrapolating the curve, S is the slope of the regression curve, and φ is the volume fraction of the organic modifier.
The coefficient of determination (R^2) was also calculated for the prepared curves.

[2] = test system: Human Serum Albumin (HSA); assay: Binding to albumin, fluorescence quenching; details: calculated from association constant KS for albumin concentration in blood of 44 mg/mL (660 μM); for fraction unbound: human, human serum albumin solution (10 µM HSA), pH 7.4, read-out: free fraction (albumin)
Protocol: Fluorescence lifetime and fluorescence intensity of HSA solutions were measured using the time-resolved Fluorescence Spectrophotometer Life Spec II (Edinburgh Instruments Ltd., Livingston, UK) with the sub-nanosecond pulsed EPLED diode emitting a light of the wavelength 280 nm. The spectrometer was equipped with electronically cooled photomultiplier Hamamatsu R928 connected with TCC900 PC Card, which incorporates all the electronic modules required for Time-Correlated Single Photon Counting (TCSPC). The fluorescence decays were recorded at an emission wavelength of 350 nm. The data were fitted with an exponential decay to obtain total fluorescence intensity and lifetime. Measurements were performed at room temperature using quartz cuvettes 3.5 × 10 mm. The exposure time of the sample was 30 s. A spectrophotometer Jasco V-550 was used for absorption measurements.
Human Serum Albumin (HSA, 97%) was purchased from Sigma Aldrich. For the fluorescence quenching measurements, the 10 µM PBS solution of HSA at pH 7.4 was prepared, and 10 mM stock solutions of studied compounds were prepared in DMSO (dimethylsulfoxide). The final concentration of studied compounds in HSA solution varied between 0 and 70 µM.
Fluorescence quenching of albumin can be described by the Stern–Volmer Equation [21]: (3) F0/F=KSV[Q]+1, where F0 and F are the fluorescence intensities in the absence and presence of quencher, respectively, [Q] is the concentration of quencher, and KSV is the Stern–Volmer quenching constant.
Due to the fact that a quencher can absorb light at the excitation and/or emission wavelengths, the measured intensity should be corrected according to the Formula [22]:(4) Fobserved=Fcorrect×10^−Aex×dex/2−Aem×dem/2, where Fobserved is the measured fluorescence, Fcorrect is the fluorescence that would be measured in the absence of absorption effect, Aex and Aem are the absorbances of ligand at the excitation (280 nm) and emission wavelength (350 nm), respectively, and dex and dem are the cuvette pathlength in the excitation and emission direction (0.35 cm and 1 cm, respectively).
As the fluorophore can be quenched by collisions or by complex formation with the quencher, there are two types of quenching: dynamic and static. They can be distinguished by lifetime measurements. […] If the quenching is known to be dynamic, then:(5) F0/F=KD[Q]+1=τ0/τ, where τ0 and τ are the lifetimes in the absence and presence of quencher, and KD is the dynamic quenching constant.
In many cases, both static and dynamic quenching occurs for the same fluorophore, then modified Stern–Volmer equation has the form:(6) F0/F=(KD[Q]+1)(KS[Q]+1)=τ0/τ(KS[Q]+1),
The dynamic portion of the quenching (KD[Q] + 1), according to Equation (5), can be determined by lifetime measurements. The portion (KS[Q] + 1) relates to static quenching, and KS is the association constant, which is given by:(7) KS=[F−Q]/[F][Q], where [F−Q] is the concentration of complex fluorophore–quencher, [F] is the concentration of uncomplexed fluorophore (concentration of free HSA molecules), and [Q] is the concentration of quencher.
In this study, the tested compounds were added to the HSA solution, and the fluorescence intensity and lifetime at 350 nm were measured for varying concentrations of ligands. On the basis of absorbance measurements of ligands at 280 nm and 350 nm, the correct fluorescence intensities were estimated using Equation (4). Then, the Stern–Volmer constants, dynamic quenching constants, and association constants of studied compounds were determined using Equations (3), (5) and (6), respectively.
Knowing the value of association constant KS, it is possible to determine the theoretical percentage of the bound and free fraction of the drug for the physiological concentration of albumin. […]

A549 cells = assay: Antiproliferative activity, MTT protocol; type: cell-based, human; details: 0.01 mg/mL, 72 h, relative to control culture
Protocol: Mouse melanoma (B16F10), human lung carcinoma (A549), and human cervix (HeLa) cell lines (kindly gifted by Prof. Tomasz Drewa, a Chair of Urology, Department of Regenerative Medicine, Collegium Medicum, Nicolaus Copernicus University, Bydgoszcz, Poland) were cultivated at 37 °C, controlled CO2 atmosphere (Binder, Tuttlingen, Germany), and high humidity with RPMI cell culture medium (with L-glutamine and sodium bicarbonate, Sigma-Aldrich), supplemented with 10% of fetal bovine serum (FBS, Biowest, Nuaillé, France), as well as antibiotics (penicillin, streptomycin) and antimycotics (amphotericin B) (Sigma-Aldrich). Combretastatin A4 (CA4), doxorubicin (DoX), and […] were purchased from Sigma-Aldrich.
Cells were counted with an automated cell counter (Countess® II FL, Invitrogen by Thermo Fisher Scientific Inc., Waltham, MA, USA). A number of 1 × 10^3 (B16F10, A549) or 2.5 × 10^3 cells were plated in each well of 96-well plate (Nunc Edge 2F, Thermo Fisher Scientific Inc.) and left for 24 h incubation prior to drug administration. After this period, the medium was replaced with a fresh medium containing the drugs (at final concentration of 0.01 mg/mL) and left for incubation for the next 72 h. A solution of thiazol blue tetrazolium (MTT, Sigma-Aldrich) was prepared in PBS at concentration of 5 mg/mL and administrated to the cell culture medium at the volume of 10% of the initial medium volume. After 2 h of incubation, the medium was removed, and crystals of formazan were solubilized in isopropanol (Sigma-Aldrich). Absorbance readout was conducted using plate reader Multiskan Spectrum (Thermo Electron Corporation, Waltham, MA, USA) at 570 nm.
Combretastatin A4 (CA4), doxorubicin (DX), and […] were employed as positive controls. Biological evaluation was performed as three independent experiments; mean response and standard deviation were calculated using Excel software (v. 2013, Microsoft Corporation, Redmond, WA, USA).

SMILES	logkw (ACN) [1]	logkw (MeOH) [1]	Compliance with the lipophilicity assumption of the Lipiński’s rule (logkw below 5) [1]	Δ = |logkw-MeOH − logkw-ACN| [1]	−S (ACN) [1]	−S (MeOH) [1]	bound fraction (albumin) [2]	fraction unbound [2]	Inhibition of development and division of A549 cells (in words) (A549 cells)
O=C1C(=Cc2ccc(N(c3ccccc3)c3ccccc3)cc2)C(=O)c2ccccc21 [Compound 3I, 2-{[4-(diphenylamino)phenyl]methylidene}-1H-indene-1,3(2H)-dione]	3.8489	5.3524	do not meet this basic assumption of the Lipiński’s rule	1.5035	3.7589	5.0483	83%	0.17	–
CN(C)c1ccc(C=C2C(=O)c3ccccc3C2=O)cc1 [Compound 3B, 2-{[4-(dimethylamino)phenyl]methylidene}-1H-indene-1,3(2H)-dione]	2.2394	3.2790	–	1.0396	2.3613	3.1597	94%	0.06	–
COc1ccc(C=C2C(=O)c3ccccc3C2=O)cc1 [Compound 3C, 2-(4-methoxybenzylidene)-1H-indene-1,3(2H)-dione]	2.3042	3.3554	–	1.0512	2.4879	3.2782	94%	0.06	–
O=C1C(=Cc2ccc(O)cc2)C(=O)c2ccccc21 [Compound 3J, 2-[(4-hydroxyphenyl)methylidene]-1H-indene-1,3(2H)-dione]	–	2.3814	–	1.3880	–	2.5802	96%	0.04	–
COc1ccc(C=C2C(=O)c3ccccc3C2=O)cc1O [Compound 3E, 2-[(3-hydroxy-4-methoxyphenyl)methylidene]-1H-indene-1,3(2H)-dione]	1.5356	2.2321	–	0.6965	1.9201	2.4114	97%	0.03	–
Cc1ccc(Oc2ccc(C=C3C(=O)c4ccccc4C3=O)cc2)cc1 [Compound 3D, 2-{[4-(4-methylphenoxy)phenyl]methylidene}-1H-indene-1,3(2H)-dione]	3.5726	5.6763	do not meet this basic assumption of the Lipiński’s rule	2.1037	3.5570	5.4798	97%	0.03	most strongly inhibited
O=C1C(=CC2=Cc3cc(O)ccc3OC2)C(=O)c2ccccc21 [Compound 3K, 2-[(6-hydroxy-2H-1-benzopyran-3-yl)methylidene]-1H-indene-1,3(2H)-dione]	1.7720	2.9717	–	1.1997	2.1213	3.0667	92%	0.08	–
O=C1C(=Cc2ccccc2)C(=O)c2ccccc21 [Compound 3A, 2-benzylidene-1H-indene-1,3(2H)-dione]	2.2433	3.3210	–	1.0777	2.4449	3.3278	97%	0.03	–
O=C1C(=Cc2ccoc2)C(=O)c2ccccc21 [Compound 3H, 2-[(furan-3-yl)methylidene]-1H-indene-1,3(2H)-dione]	1.9162	2.5521	–	0.6359	2.2011	2.6243	95%	0.05	–
